Laboratory results reported in patent publication US11571413B2, “Nicotinamide riboside treatments of domesticated meat animals” (Kansas State University Research Foundation, priority 2017, dated 2023).
Marks after values point to notes of the source that are not given here.

Experiments:
[1] = test system: Fertilized broiler eggs (Cobb 500); assay: NR concentration on avian embryonic myogenesis, d 19 embryo morphometrics (Example II); type: in vivo, chicken; conditions: 100 μl into yolk d 10, d 19 embryos
Method: Fertilized broiler eggs (n=60; Cobb 500) were randomly assigned to 1 of 4 treatments: 0.0, 250, 500, or 1,000 mM NR in sterile saline. At day 10 of incubation, 100 μl of treatment solution was injected into the egg yolk. Eggs were incubated at 37±3° C. and a relative humidity of 40±2%. At day 19 of incubation, embryos were euthanized by prolonged exposure to CO2 gas and decapitation. Measurements including: embryo weight; crown-rump length; chest circumference (CC); and left Pectoralis major (PM) weight, length, width, and depth were collected.

finishing barrows = assay: Loin chop color stability, 8-day simulated retail display (Example IV); type: in vivo, pig; conditions: NR 30 mg/kg, 10 days
Method: Seven days prior to the beginning of the experiment, 10 finishing barrows (initial BW 111.9±1.6 kg) were assigned to individual pens located at the East Finisher facility of the Kansas State University Swine Teaching and Research Center (Manhattan, Kans.). Each pen was 7.4 m^2 with a slatted floor, contained a nipple waterer and an individual dry feeder that allowed ad libitum access to food and water. Barrows were randomly assigned to 1 of 2 NR treatments, 0 or 30 mg/kg daily of NR mixed in Karo® syrup and administered by oral gavage. Barrows were administered their assigned treatment for 10 days, after which they were harvested under USDA inspection. Twenty-four hours after harvest, carcass measurements were taken by trained personnel, carcasses were fabricated into the 5 major wholesale cuts, and whole-boneless loins were vacuum packaged and aged for 10 days. Loin were cut into 3 chops with chop 1 being used for day-0 metmyoglobin reducing ability (MRA) analysis, chop 2 being used for day-4 MRA and oxygen consumption rate (OCR) analyses, and chop 3 for 8-day objective/subjective color evaluation and MRA and OCR analyses. There were no Treatment×Day interactions for all objective and subjective color measurements (P>0.77). Day of display affected all measures consistent with the discoloration of meat (P<0.02), except L* (lightness; 0=black and 100=white) value which was not affected (P=0.14; Table 5).

finished market barrows = assay: Performance test to subjective fatigue (Example V); type: in vivo, pig; conditions: 30 mg/kg BW oral daily; performance test on day 7, 0.88 m/s
Method: Fourteen days prior to harvest, 20 finished market barrows (initial body weight 268 pounds) were randomly assigned to 1 of 2 treatments: 0 or 30 mg/kg body weight of nicotinamide riboside, both orally administered daily in 20 ml of Karo® Syrup. Ten days prior to harvest, pigs were restrained via a snare and treatments were administered. On day 7, barrows were subjected to a performance test where they were walked around a track at 0.88 m/s until subjective fatigue was achieved. Three days following the performance test, barrows were harvested and a portion of the semitendinosus muscle was collected within 45 minutes. These samples were analyzed for NAD+ content via HPLC methodology.

[2] = test system: Fertilized broiler eggs (Cobb 500); assay: Pectoralis major muscle fiber CSA and density by immunohistochemistry (Example VI); type: in vivo, chicken; conditions: hatched chicks
Method: The methods of Noel et al. (2016) were followed for immunohistochemistry with modifications. The PM was removed from the tongue depressor, embedded in tissue embedding media (Fisher Scientific), cooled with isopentane chilled liquid nitrogen, and stored at −80° C. until cryosectioning. Ten micrometer-thick cryosections were cut using a Microm 550 cryostat (Thermo Fisher Scientific, Kalamazoo, Mich.) and six cryosection were collected on positively charged slides (Diamond White Glass; Globe Scientific Inc., Paramus, N.J.). Cryosections were incubated in a blocking solution containing 5% horse serum and 0.2% TritonX-100 in Phosphate Buffered Saline (PBS) for 30 min. Slides were incubated for 1 h at room temperature in a primary antibody solution consisting of blocking solution and 1:500 rabbit, α-dystrophin (Thermo Fisher Scientific). Cryosections were washed 3 times for 5 min each in PBS and incubated for an additional 30 min with blocking solution containing 1:1,000 Alexa-Flour 594 goat-anti-rabbit heavy and light chains (Life Technologies, Carlsbad, Calif.). Cryosections were washed again as stated above, 5 μl of 9:1 glycerol in PBS was placed on each section, and slides were coverslipped for imaging. Cryosections were visualized at 200× magnification using a Nikon Elipse TI-U inverted microscope (Nikon Instruments Inc., Melville, N.Y.), a Nikon DS-QiMC digital camera (Nikon Instruments Inc.) was used to photograph cryosections, and an average of 1,000 fibers were analyzed using NIS-Elements imaging software (Basic Research, 3.3; Nikon Instruments Inc.) to determine fiber cross-section area (CSA).

[3] = 8-day display, treatment effect not significant (P>0.19)

`NC(=O)c1ccc[n+]([C@@H]2O[C@H](CO)[C@@H](O)[C@H]2O)c1` [Nicotinamide riboside, nicotinamide riboside] was tested, and the Body weight ([1]; 250 mM NR) was 46.42 g, the Chest circumference ([1]; 250 mM NR) was 6.0^a,b cm and the “Crown to rump length” value ([1]; 250 mM NR) was 83.69^a mm. For the same compound, the Head circumference ([1]; 250 mM NR) was 5.3^a cm, the Head length ([1]; 250 mM NR) was 17.70 mm and the Head width ([1]; 250 mM NR) was 15.42 mm. For the same compound, the “Organ weight, heart” value ([1]; 250 mM NR) was 0.23 g, the “Organ weight, liver” value ([1]; 250 mM NR) was 0.74 g and the Pectoralis major length ([1]; 250 mM NR) was 16.73^b mm. For the same compound, the “Pectoralis major maximum thickness” value ([1]; 250 mM NR) was 2.56^b mm, the Pectoralis major weight ([1]; 250 mM NR) was 0.13^a,b g and the Pectoralis major width ([1]; 250 mM NR) was 4.90^a,b mm. For the same compound, the Body weight ([1]; 500 mM NR) was 46.25 g, the Chest circumference ([1]; 500 mM NR) was 6.3^b cm and the “Crown to rump length” value ([1]; 500 mM NR) was 85.14^a mm. For the same compound, the Head circumference ([1]; 500 mM NR) was 5.6^b cm, the Head length ([1]; 500 mM NR) was 17.60 mm and the Head width ([1]; 500 mM NR) was 15.49 mm. The “Organ weight, heart” value ([1]; 500 mM NR) was 0.23 g, the “Organ weight, liver” value ([1]; 500 mM NR) was 0.72 g and the Pectoralis major length ([1]; 500 mM NR) was 17.51^b mm. The “Pectoralis major maximum thickness” value ([1]; 500 mM NR) was 2.36^a,b mm, the Pectoralis major weight ([1]; 500 mM NR) was 0.16^b g and the Pectoralis major width ([1]; 500 mM NR) was 5.32^b mm. The Body weight ([1]; 1,000 mM NR) was 45.97 g, the Chest circumference ([1]; 1,000 mM NR) was 6.6^b cm and the “Crown to rump length” value ([1]; 1,000 mM NR) was 88.20^b mm. The Head circumference ([1]; 1,000 mM NR) was 5.7^b cm, the Head length ([1]; 1,000 mM NR) was 17.98 mm and the Head width ([1]; 1,000 mM NR) was 15.69 mm. For the same compound, the “Organ weight, heart” value ([1]; 1,000 mM NR) was 0.24 g, the “Organ weight, liver” value ([1]; 1,000 mM NR) was 0.67 g and the Pectoralis major length ([1]; 1,000 mM NR) was 17.44^b mm. For the same compound, the “Pectoralis major maximum thickness” value ([1]; 1,000 mM NR) was 2.64^b mm, the Pectoralis major weight ([1]; 1,000 mM NR) was 0.15^b g and the Pectoralis major width ([1]; 1,000 mM NR) was 5.61^b mm. The “Metmyoglobin reducing ability (MRA) vs control” value (finishing barrows; [3]) was “greater”, the “Oxygen consumption rate (OCR) vs control” value (finishing barrows; [3]) was “greater” and the “Loin chop L* (0 = black and 100 = white)” value (finishing barrows; display day 0) was 64.4. The “Loin chop a* (−60 = green and 60 = red)” value (finishing barrows; display day 0) was 19.7, the “Loin chop L* (0 = black and 100 = white)” value (finishing barrows; display day 1) was 65.2 and the “Loin chop a* (−60 = green and 60 = red)” value (finishing barrows; display day 1) was 18.8. For the same compound, the “Loin chop L* (0 = black and 100 = white)” value (finishing barrows; display day 2) was 63.7, the “Loin chop a* (−60 = green and 60 = red)” value (finishing barrows; display day 2) was 18.6 and the “Loin chop L* (0 = black and 100 = white)” value (finishing barrows; display day 3) was 63.4. The “Loin chop a* (−60 = green and 60 = red)” value (finishing barrows; display day 3) was 17.8, the “Loin chop L* (0 = black and 100 = white)” value (finishing barrows; display day 4) was 63.1 and the “Loin chop a* (−60 = green and 60 = red)” value (finishing barrows; display day 4) was 17.3. For the same compound, the “Loin chop L* (0 = black and 100 = white)” value (finishing barrows; display day 5) was 62.9, the “Loin chop a* (−60 = green and 60 = red)” value (finishing barrows; display day 5) was 16.3 and the “Loin chop L* (0 = black and 100 = white)” value (finishing barrows; display day 6) was 62.7. For the same compound, the “Loin chop a* (−60 = green and 60 = red)” value (finishing barrows; display day 6) was 15.6, the “Loin chop L* (0 = black and 100 = white)” value (finishing barrows; display day 7) was 62.8 and the “Loin chop a* (−60 = green and 60 = red)” value (finishing barrows; display day 7) was 15.1. For the same compound, the “Loin chop L* (0 = black and 100 = white)” value (finishing barrows; display day 8) was 62.8, the “Loin chop a* (−60 = green and 60 = red)” value (finishing barrows; display day 8) was 14.7 and the “Trained panelists loin chop discoloration vs control” value (finishing barrows; entire 8-day display period) was “less discoloration”. For the same compound, the “Loin chop surface metmyoglobin vs control” value (finishing barrows; over the 8-day display period) was “less surface metmyoglobin formation”, the “Loin chop surface oxymyoglobin vs control” value (finishing barrows; over the 8-day display period) was “greater surface oxymyoglobin” and the “Ran farther (distance) than unsupplemented barrows, numerically” value (finished market barrows) was 16%. The “Ran longer (time to subjective fatigue) than unsupplemented barrows, numerically” value (finished market barrows) was 19%, the “PM fiber CSA” value ([2]; 250 mM NR in ovo at d 10) was “did not affect” and the “Muscle fiber density vs saline in the albumen” value ([2]; 250 mM NR into albumen) was “not differ”. For the same compound, the “Increase of PM fiber density” value ([2]; 250 mM NR into the yolk sac) was 45% and the “Muscle fiber density vs saline in the yolk” value ([2]; 250 mM NR into yolk) was “more”.
